In patent US5045533A, “Retinoic esters of antibiotics and pharmaceutical and cosmetic compositions containing them” (L'Oreal, priority 1986, dated 1991):
≈ marks a conversion by molar mass, not a printed value. Read-outs that look alike come from different tables or passages of the source.

How the values were obtained:
P37 E⊕ (sensitive) = experiment: MIC by dilution method, P37 E⊕ (sensitive) strain; type: cell-based, propionibacterium acnes; settings: for MIC: Cutibacterium acnes; for activity on sensitive strains relative to the esters of the invention: P37 E⊕
Description: (§1) The activity of retinoic esters of antibiotics namely of erythromycin A, lincomycin and clindamycin has been studied by the dilution method, so as to determine, the minimal inhibitory concentration (MIC), this method being described and employed by G. A. Denys et al, "Antimicrobial Agents and Chemotherapy" 1983) 23, 335-337 and J. J. Leyden et al, J. Am. Acad. Dermatol. (1983), 8, (1) 41-5, by using as the strain of propionibacterium acnes, the P37 strain furnished by Cunliffe and Holland.
(§2) (2) at 1 cm beyond the periphery of the zone of inhibition strains called P37 E⊕ are retained.
(§3) After isolation and culture, the P37 E⊕ and P37 E⊖ strains effectively show very different sensitivities to erythromycin as is illustrated by the following respective MIC values:
(§4) The Minimal Inhibitory Concentration (MIC) expressed in μg/ml of the tested retinoic esters of erythromycin A, lincomycin and clindamycin vis-a-vis the P37⊕ and P37⊖ strains is reported in the following tables

Staph. Epi. 6 = experiment: MIC, Staph. Epi. 6 strain; type: cell-based; settings: Staphylococcus epidermidis; strain isolated from a non-acne patient; read-out: minimal inhibitory concentrations, Staph. Epi. 6
Description: as §1
(§5) The "Staph. Epi. 3" strain is isolated from an acne patient whereas the "Staph. Epi. 6" strain is isolated from a non-acne patient. The isolation of these strains is carried out in accordance with the Williamson-Kligman method, ("A new method for the quantitative investigation of cutaneous bacteria", P. Williamson and A. Kligman, J. I. D., Vol. 45, No. 6, 1965). Decimal dilutions of the retained portions are effected and 0.1 ml of these dilutions is inoculated on a selective medium permitting isolation of staphylococcus.

P37 E⊖ (resistant) = experiment: MIC by dilution method, P37 E⊖ (resistant) strain; type: cell-based, propionibacterium acnes; settings: for MIC: Cutibacterium acnes; for activity on resistant strains relative to the esters of the invention: P37 E⊖
Description: as §1
(§6) (1) at the interior of the zone of inhibition strains called P37 E⊖ are retained because of their apparent resistance to erythromycin;
as §3, §4

Staph. Epi. 3 = experiment: MIC, Staph. Epi. 3 strain; type: cell-based; settings: Staphylococcus epidermidis; strain isolated from an acne patient; read-out: minimal inhibitory concentrations, Staph. Epi. 3
Description: as §1, §5

P37 = experiment: IC 50 (Inhibitory Concentration at 50%), P37; type: cell-based, propionibacterium acnes; settings: Cutibacterium acnes, constant culture time, 50% of survivors
Description: (§7) This phenomeon is confirmed by the study of the IC 50 (Inhibitory Concentration at 50%) which represents the concentration of erythromycin where, at a constant culture time, 50% of survivors among the population are found.

P37 strain = experiment: zone of inhibition of growth around disk in Petri dish; type: cell-based, propionibacterium acnes; settings: Cutibacterium acnes, 144 h; 50 μg erythromycin in DMSO on 9 mm disk; 6 days at 36° C., anaerobic; after 8 sub-cultures; read-out: zone of inhibition of the growth of the strain, total diameter
Description: On the other hand, after 8 successive sub-cultures in the same medium (RCM, Reinforced Clostridium Medium (oxoid) 19/20, DMSO […] by volume) so as to obtain a progressive stabilization of the strain to this medium, a progressive resistance to erythromycin is manifested in the following form.
After exposure of a standardized inoculum (DO=1.8 to […]) on gelose medium (RCM+ furazolidone) in a Petri dish, a 9 mm diameter disk is deposited at its center. On this disk, 50 μg of erythromycin (in solution in DMSO) are deposited.

P37 E⊕ = experiment: IC 50 (Inhibitory Concentration at 50%), P37 E⊕; type: cell-based, propionibacterium acnes; settings: Cutibacterium acnes, constant culture time, 50% of survivors
Description: as §2, §7

P37 E⊖ = experiment: IC 50 (Inhibitory Concentration at 50%), P37 E⊖; type: cell-based, propionibacterium acnes; settings: Cutibacterium acnes
Description: as §6, §7

[1] = sensitive strain, retinoic ester table, read-out: Minimal Inhibitory Concentration (MIC), P37 E⊕ (sensitive)
[2] = read-out: Minimal Inhibitory Concentration (MIC), P37 E⊖ (resistant)

Row | SMILES | MIC (P37 E⊕ (sensitive); [1]) [µg/mL] | MIC (Staph. Epi. 6) [µg/mL] | MIC (P37 E⊖ (resistant); [2]) [µg/mL] | MIC (Staph. Epi. 3) [µg/mL] | also measured
1 | CCC[C@@H]1C[C@@H](C(=O)N[C@@H]([C@H]2O[C@H](SC)[C@H](O)[C@@H](O)[C@H]2O)[C@H](C)Cl)N(C)C1 [Clindamycin] | 1 (≈ 2.35 µM) | 8 (≈ 18.8 µM) | 10 (≈ 23.5 µM) | 7 (≈ 16.5 µM) | –
2 | CC[C@H]1OC(=O)[C@H](C)[C@@H](O[C@H]2C[C@@](C)(OC)[C@@H](O)[C@H](C)O2)[C@H](C)[C@@H](O[C@@H]2O[C@H](C)C[C@H](N(C)C)[C@H]2O)[C@](C)(O)C[C@@H](C)C(=O)[C@H](C)[C@@H](O)[C@]1(C)O [Erythromycin A] | 1 (≈ 1.36 µM) | 30 (≈ 40.9 µM) | > 50 | 13 (≈ 17.7 µM) | MIC (P37 E⊕ (sensitive); P37 E⊕ strain, strain characterisation table, read-out: MIC): 0.78 µg/mL (≈ 1.06 µM); IC50 (P37): 50 µg/mL (≈ 68.1 µM); zone of inhibition at 50 µg/disc (P37 strain): 42 mm; MIC (P37 E⊖ (resistant)): 50 µg/mL (≈ 68.1 µM); IC50 (P37 E⊕): 5 µg/mL (≈ 6.81 µM); IC50 (P37 E⊖): 100 µg/mL (≈ 136 µM)
3 | CCC[C@@H]1C[C@@H](C(=O)N[C@@H]([C@H]2O[C@H](SC)[C@H](O)[C@@H](O)[C@H]2O)[C@@H](C)O)N(C)C1 [Lincomycin] | 13 (≈ 32 µM) | 20 (≈ 49.2 µM) | 66 (≈ 162 µM) | 14 (≈ 34.4 µM) | –
4 | CCCCCCCC/C=C\CCCCCCCC(=O)O[C@H]1[C@H](O[C@@H]2[C@@H](C)[C@H](O[C@H]3C[C@@](C)(OC)[C@@H](O)[C@H](C)O3)[C@@H](C)C(=O)O[C@H](CC)[C@@](C)(O)[C@H](O)[C@@H](C)C(=O)[C@H](C)C[C@@]2(C)O)O[C@H](C)C[C@@H]1N(C)C [O-oleoyl-2'-erythromycin A (Z-9)] | 50 (≈ 50.1 µM) | – | 100 (≈ 100 µM) | – | activity on sensitive strains relative to the esters of the invention (P37 E⊕ (sensitive)): clearly less active; activity on resistant strains relative to the esters of the invention (P37 E⊖ (resistant)): clearly less active
5 | CCCCCCCC/C=C\CCCCCCCC(=O)O[C@H]1[C@@H](O)[C@@H]([C@H](NC(=O)[C@@H]2C[C@@H](CCC)CN2C)[C@H](C)Cl)O[C@H](SC)[C@@H]1O [O-oleoyl-3-clindomycin] | 54 (≈ 78.3 µM) | – | > 138 | – | activity on sensitive strains relative to the esters of the invention (P37 E⊕ (sensitive)): clearly less active; activity on resistant strains relative to the esters of the invention (P37 E⊖ (resistant)): clearly less active
6 | CCCCCCCC/C=C\CCCCCCCC(=O)O[C@H]1[C@@H](O)[C@@H]([C@H](NC(=O)[C@@H]2C[C@@H](CCC)CN2C)[C@@H](C)O)O[C@H](SC)[C@@H]1O [O-oleoyl-3-lincomycin] | 19 (≈ 28.3 µM) | – | 42 (≈ 62.6 µM) | – | –
7 | CC[C@H]1OC(=O)[C@H](C)[C@@H](O[C@H]2C[C@@](C)(OC)[C@@H](O)[C@H](C)O2)[C@H](C)[C@@H](O[C@@H]2O[C@H](C)C[C@H](N(C)C)[C@H]2OC(=O)\C=C(C)/C=C/C=C(C)/C=C/C2=C(C)CCCC2(C)C)[C@](C)(O)C[C@@H](C)C(=O)[C@H](C)[C@@H](O)[C@]1(C)O [O-retinoyl (13-cis)-2'-erythromycin A] | 20 (≈ 19.7 µM) | 110 (≈ 108 µM) | 34 (≈ 33.5 µM) | 110 (≈ 108 µM) | –
8 | CCC[C@@H]1C[C@@H](C(=O)N[C@@H]([C@H]2O[C@H](SC)[C@H](O)[C@@H](OC(=O)\C=C(C)/C=C/C=C(C)/C=C/C3=C(C)CCCC3(C)C)[C@H]2O)[C@H](C)Cl)N(C)C1 [O-retinoyl (13-cis)-3-clindamycin] | 1.5 (≈ 2.12 µM) | 113 (≈ 160 µM) | 35 (≈ 49.5 µM) | 113 (≈ 160 µM) | –
9 | CCC[C@@H]1C[C@@H](C(=O)N[C@@H]([C@H]2O[C@H](SC)[C@H](O)[C@@H](OC(=O)\C=C(C)/C=C/C=C(C)/C=C/C3=C(C)CCCC3(C)C)[C@H]2O)[C@@H](C)O)N(C)C1 [O-retinoyl (13-cis)-3-lincomycin] | 17.5 (≈ 25.4 µM) | 100 (≈ 145 µM) | 25 (≈ 36.3 µM) | 100 (≈ 145 µM) | –
10 | CC[C@H]1OC(=O)[C@H](C)[C@@H](O[C@H]2C[C@@](C)(OC)[C@@H](O)[C@H](C)O2)[C@H](C)[C@@H](O[C@@H]2O[C@H](C)C[C@H](N(C)C)[C@H]2OC(=O)/C=C(C)/C=C/C=C(C)/C=C/C2=C(C)CCCC2(C)C)[C@](C)(O)C[C@@H](C)C(=O)[C@H](C)[C@@H](O)[C@]1(C)O [O-retinoyl (all trans)-2'-erythromycin A] | 14 (≈ 13.8 µM) | 80 (≈ 78.7 µM) | 13 (≈ 12.8 µM) | 75 (≈ 73.8 µM) | –
11 | CCC[C@@H]1C[C@@H](C(=O)N[C@@H]([C@H]2O[C@H](SC)[C@H](O)[C@@H](OC(=O)/C=C(C)/C=C/C=C(C)/C=C/C3=C(C)CCCC3(C)C)[C@H]2O)[C@H](C)Cl)N(C)C1 [O-retinoyl (all-trans)-3-clindamycin, O-retinoyl (all trans)-3-clindamycin] | 18 (≈ 25.4 µM) | – | 50 (≈ 70.7 µM) | – | –
